The values that follow come from patent publication US10669272B2, “Substituted naphthyridinone compounds useful as T cell activators” (BRISTOL-MYERS SQUIBB COMPANY, priority 2018, dated 2020).

One experiment addresses T1, human DGKα (Homo sapiens, UniProt P23743).
T1 construct: TVMV protease cleavage site (C); Hexa-His (C); made in house; host or cells: Sf9 insect cells (baculovirus, Bac-to-Bac)
Kind of experiment: DGKα LIPGLO assay (extruded liposome substrate), in vitro DGK inhibition. The format is biochemical. The conditions noted are these: read-out: DGKa LIPGLO IC50.

Another experiment addresses T2, human DGKζ (Homo sapiens, UniProt Q13574).
T2 construct: TVMV protease cleavage site (C); Hexa-His (C); made in house; host or cells: Sf9 insect cells (baculovirus, Bac-to-Bac)
The experiment is described as follows: DGKζ LIPGLO assay (extruded liposome substrate), in vitro DGK inhibition. The format is biochemical. The note with it: read-out: DGKz LIPGLO IC50.

For the next experiment, the system named is Human venous whole blood. Kind of experiment: Human whole blood IFN-γ assay.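 Also: blood from healthy donors exposed to compound for 1 h before stimulation with anti-CD3 and anti-CD28 at 1 µg/mL each, IFN-γ quantified in supernatant by AlphaLISA.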 The format is cell-based. The conditions noted are these: human whole blood, read-out: INFg Whole Blood Normalized Agonist EC50.
[1] abbreviates: Homo sapiens, 24 h, normalized to 3 μM reference compound with anti-CD3 plus anti-CD28 as 100% activation.
Where [2] appears, read: normalized to 3 μM reference compound with anti-CD3 plus anti-CD28 as 100% activation.
The mark [3] stands for this setting: Homo sapiens, 24 h, anti-CD3 plus anti-CD28, 24 hours, 3 μM reference compound = 100% activation.

The structures appear in SMILES notation. Where two headings read alike, the source gives them in different places.

T2 sequence (Q13574 with tags, fused parts or gaps isoform Q13574-4): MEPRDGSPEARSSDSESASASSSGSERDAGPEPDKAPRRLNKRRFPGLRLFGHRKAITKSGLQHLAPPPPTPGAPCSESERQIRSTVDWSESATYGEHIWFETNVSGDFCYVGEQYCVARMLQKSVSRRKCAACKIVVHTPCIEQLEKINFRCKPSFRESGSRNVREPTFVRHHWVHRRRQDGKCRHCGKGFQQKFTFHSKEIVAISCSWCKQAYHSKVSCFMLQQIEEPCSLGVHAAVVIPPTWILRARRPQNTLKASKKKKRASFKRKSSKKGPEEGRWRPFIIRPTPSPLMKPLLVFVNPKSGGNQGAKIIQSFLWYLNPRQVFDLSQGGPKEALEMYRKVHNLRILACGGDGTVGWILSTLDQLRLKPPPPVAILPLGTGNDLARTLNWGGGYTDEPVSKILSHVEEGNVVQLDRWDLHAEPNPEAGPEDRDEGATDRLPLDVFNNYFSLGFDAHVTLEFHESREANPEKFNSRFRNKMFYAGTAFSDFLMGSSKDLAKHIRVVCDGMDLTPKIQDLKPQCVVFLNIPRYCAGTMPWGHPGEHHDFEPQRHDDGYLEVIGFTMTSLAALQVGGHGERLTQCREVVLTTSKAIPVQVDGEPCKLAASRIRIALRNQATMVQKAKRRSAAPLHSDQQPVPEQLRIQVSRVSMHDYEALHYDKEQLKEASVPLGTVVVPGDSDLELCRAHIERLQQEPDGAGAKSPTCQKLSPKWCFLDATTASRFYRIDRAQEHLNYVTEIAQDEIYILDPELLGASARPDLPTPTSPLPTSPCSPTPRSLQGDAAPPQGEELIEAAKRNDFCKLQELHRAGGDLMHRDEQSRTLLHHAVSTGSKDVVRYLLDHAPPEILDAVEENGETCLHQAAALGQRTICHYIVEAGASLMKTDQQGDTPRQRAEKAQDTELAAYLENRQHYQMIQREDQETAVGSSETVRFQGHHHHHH
T1 sequence (P23743 with tags, fused parts or gaps): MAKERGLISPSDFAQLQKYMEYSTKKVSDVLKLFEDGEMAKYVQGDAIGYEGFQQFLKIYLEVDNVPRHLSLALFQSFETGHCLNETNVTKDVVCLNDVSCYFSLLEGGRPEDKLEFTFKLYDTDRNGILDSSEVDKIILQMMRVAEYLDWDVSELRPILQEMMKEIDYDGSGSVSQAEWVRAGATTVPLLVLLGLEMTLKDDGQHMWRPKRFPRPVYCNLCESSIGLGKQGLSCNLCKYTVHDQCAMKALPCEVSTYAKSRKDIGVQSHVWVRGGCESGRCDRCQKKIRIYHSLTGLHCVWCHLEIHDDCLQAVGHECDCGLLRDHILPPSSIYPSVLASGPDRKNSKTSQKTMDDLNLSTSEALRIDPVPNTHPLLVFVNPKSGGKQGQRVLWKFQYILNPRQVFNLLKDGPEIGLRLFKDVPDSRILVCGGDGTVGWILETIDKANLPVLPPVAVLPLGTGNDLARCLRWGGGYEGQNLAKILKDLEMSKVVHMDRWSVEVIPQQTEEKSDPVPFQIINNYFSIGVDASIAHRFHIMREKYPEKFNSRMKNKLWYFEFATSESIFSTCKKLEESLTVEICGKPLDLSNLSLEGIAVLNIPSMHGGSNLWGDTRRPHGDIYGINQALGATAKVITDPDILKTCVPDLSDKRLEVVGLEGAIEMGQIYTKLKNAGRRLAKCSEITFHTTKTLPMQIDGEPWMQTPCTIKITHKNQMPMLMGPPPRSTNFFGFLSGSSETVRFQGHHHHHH
Method for Human venous whole blood: Human Whole Blood IFN-γ Assay
Human venous whole blood (22.5 μL per well), obtained from healthy donors, was pre-treated with compounds for one hour at 37° C. in a humidified 95% air/5% CO2 incubator. The blood was stimulated with 2.5 μL anti-human CD3 and anti-CD28 mAb at a final concentration of 1 μg/mL each for 24 hours at 37° C. IFN-γ in the supernatants was measured using AlphLISA kit (Cat # AL217).

Turning to `C[C@@H]1CN(c2cc(=O)n(C)c3ccc(C#N)nc23)[C@@H](C)CN1C(c1ccc(OC(F)(F)F)cc1F)C1CC1` (single isomer, unassigned) [Example 480], the IC50 at human DGKα (liposome (LIPGLO) assay) came to 1600 nM; on human DGKζ (liposome (LIPGLO) assay), 1800 nM. Further, in the experiment with Human venous whole blood (setting [1]), the EC50 is 4900 nM.
Consider `C[C@@H]1CN(c2cc(=O)n(C)c3ccc(C#N)nc23)[C@@H](C)CN1C(c1ccc(F)cc1)c1cccc(C(F)(F)F)n1` (stereo partly drawn) [Example 679], for which the IC50 amounted to 5400 nM on human DGKα (liposome (LIPGLO) assay) and 720 nM on human DGKζ (liposome (LIPGLO) assay). Moreover, the EC50 in the experiment with Human venous whole blood (setting [2]) amounted to 1300 nM.
In the same order, the values of `CCC(c1ccc(C2CC2)cc1F)N1C[C@H](CC)N(c2cc(=O)n(C)c3ccc(C#N)nc23)C[C@H]1CC` (single isomer, unassigned) [Example 1360] are 830 nM, 110 nM and 700 nM.
As to `C[C@@H]1CN(c2c(C#N)c(=O)n(C)c3ccc(C#N)nc23)CCN1Cc1cccc(-c2ccccc2)c1` [Example 1004], the IC50 amounted to 3900 nM on human DGKα (DGKα liposome (LIPGLO) assay) and 11000 nM on human DGKζ (DGKζ liposome (LIPGLO) assay). Also, in the experiment on Human venous whole blood (setting [3]), the EC50 was found to be 3500 nM.
As for `CC(c1ccc(F)cc1)N1CCN(c2c(C#N)c(=O)n(C)c3ccc(C#N)nc23)C[C@H]1C` (single isomer, unassigned) [Example 959], the figures for the IC50 at human DGKα (DGKα liposome (LIPGLO) assay) and on human DGKζ (DGKζ liposome (LIPGLO) assay) were 2400 nM and 5900 nM, respectively. The EC50 with Human venous whole blood (anti-CD3 plus anti-CD28, 24 hours, 3 μM reference compound = 100% activation) is 5400 nM.
On to `C[C@@H]1CN(c2cc(=O)n(C)c3ccc(C#N)nc23)[C@@H](C)CN1C(c1ccc(F)cc1)C(F)(F)F` (single isomer, unassigned) [Example 582], for which the IC50 came to 440 nM at human DGKα (liposome (LIPGLO) assay) and 6000 nM on human DGKζ (liposome (LIPGLO) assay). The EC50 in the experiment with Human venous whole blood (setting [2]) was 1700 nM.
For the compound `CC[C@H]1CN(C(C)c2cc(F)c(F)c(F)c2)[C@H](C)CN1c1cc(=O)n(C)c2ccc(C#N)nc12` (single isomer, unassigned) [Example 1383], the results for the IC50 at human DGKα (liposome (LIPGLO) assay) and at human DGKζ (liposome (LIPGLO) assay) were 970 nM and 480 nM, respectively. The EC50 with Human venous whole blood (setting [1]) came to 7000 nM.
In the case of `CC[C@H]1CN(C(c2cccc(F)c2)c2ccc(F)cn2)[C@H](CC)CN1c1cc(=O)n(C)c2ccc(C#N)nc12` (single isomer, unassigned) [Example 1041], the values for the IC50 at human DGKα (liposome (LIPGLO) assay) and on human DGKζ (liposome (LIPGLO) assay) were 36 nM and 43 nM, respectively. Also, the EC50 in the experiment with Human venous whole blood (setting [1]) was 230 nM.
As for `CC[C@H]1CN(C(C)c2cc(F)cc(OC(F)(F)F)c2)[C@H](C)CN1c1cc(=O)n(C)c2ccc(C#N)nc12` (stereo partly drawn) [Example 1384], the IC50 amounted to 9400 nM at human DGKα (liposome (LIPGLO) assay) and 260 nM on human DGKζ (liposome (LIPGLO) assay). Moreover, the EC50 with Human venous whole blood (setting [1]) was 8000 nM.
Turning to `CC[C@@H]1CN(c2cc(=O)n(C)c3ccc(C#N)nc23)[C@@H](CC)CN1Cc1ccc(OC(F)(F)F)cc1F` [Example 1370], the IC50 on human DGKα (liposome (LIPGLO) assay) is 23 nM; at human DGKζ (liposome (LIPGLO) assay), 140 nM. For the same compound, in the experiment on Human venous whole blood (setting [1]), the EC50 was determined as 240 nM.
On to `C[C@@H]1CN(c2cc(=O)n(C)c3ccc(C#N)nc23)[C@@H](C)CN1Cc1cc(-c2ccccc2)no1` [Example 1425], for which the figures for the IC50 at human DGKα (liposome (LIPGLO) assay) and at human DGKζ (liposome (LIPGLO) assay) were 5900 nM and 4900 nM, respectively. The concentration for a half-maximal effect (EC50) in the experiment on Human venous whole blood (setting [1]) stood at 20000 nM.
Regarding `CC[C@H]1CN(C(C)c2ccc(F)cc2)[C@H](CC)CN1c1cc(=O)n(C)c2ccc(C#N)nc12` (single isomer, unassigned) [Example 1049], the IC50 on human DGKα (liposome (LIPGLO) assay) is 15 nM; on human DGKζ (liposome (LIPGLO) assay), 42 nM. In addition, the EC50 with Human venous whole blood (setting [2]) is 130 nM.
For `C[C@@H]1CN(c2cc(=O)n(C)c3ccc(C#N)nc23)[C@@H](C)CN1C(c1ccc(Cl)cc1)c1nc(C2CC2)no1` (single isomer, unassigned) [Example 1286], the IC50 at human DGKα (liposome (LIPGLO) assay) is 38 nM; at human DGKζ (liposome (LIPGLO) assay), 100 nM. For the same compound, the EC50 in the experiment with Human venous whole blood (setting [2]) was 270 nM.
Take `Cc1cccc(C(C)N2CCN(c3c(C#N)c(=O)n(C)c4ccc(C#N)nc34)C[C@H]2C)n1` (stereo partly drawn) [Example 964]: the IC50 on human DGKα (DGKα liposome (LIPGLO) assay) amounted to 1900 nM; on human DGKζ (DGKζ liposome (LIPGLO) assay) it was 32000 nM. The EC50 in the experiment on Human venous whole blood (setting [3]) is 13000 nM.
As for `CCC(c1ccc(C2CC2)cc1)N1C[C@H](C)N(c2cc(=O)n(C)c3ccc(C#N)nc23)C[C@H]1C` (single isomer, unassigned) [Example 1221], the IC50 at human DGKα (liposome (LIPGLO) assay) turned out to be 850 nM; on human DGKζ (liposome (LIPGLO) assay), 2700 nM. In addition, the EC50 in the experiment on Human venous whole blood (setting [2]) came out at 4200 nM.

As a reminder, the IC50 is the midpoint of a concentration-inhibition curve. As usually defined, the EC50 is the midpoint of the concentration-response curve.
